# Reference: patent US4950669A, “Methods and compositions for promoting growth of animals” (priority 1987, dated 1990)
# Where a SMILES comes first, the peptide text is derived from it.
# Tests used:
# [1] = 44-day floor-pen study in chickens (Example XV); type: in vivo; conditions: feed 30 g/ton, 44 days
# Text: There were 60 chickens per replication, 3 replications per treatment. One group of controls was unmedicated, while a second control group received Bacitracin in the feed at 30 g/ton.
# [2] = 44-day floor pen study in chickens (Example XIV); type: in vivo; conditions: feed 30 g/ton
# Procedure: A 44-day floor pen study was conducted in which n-morpholinyl-β-benzoyl-propionamide was administered in chicken feed at concentrations of 1 ppm, 2.5 ppm, 5 ppm, 10 ppm, 20 ppm, 40 ppm and 60 ppm. One group of controls received no medication in its feed, while a second control group received Bacitracin MD in its feed at 30 g/ton. Birds were fed ad libitum. There were 5 replications per treatment, 50 birds per replication. Birds were weighed to determine weight gain and feed-to-gain ration after 35 days and 44 days.
# [3] = 21-day battery study in chickens (Example XIII); type: in vivo; conditions: feed 30 g/ton
# Procedure: N-morpholinyl-β-benzoyl-propionamide was admixed with chicken feed at concentrations of 1.0 ppm, 7.5 ppm and 15 ppm. A 21-day battery study was conducted with the NMBP-containing feed. One group of controls was unmedicated, while a second control group received Bacitracin MD in its feed at 30 g/ton. The birds were fed ad libitum and weighed on days 7, 14 and 21. There were 10 birds per replication, 4 replications in controls and 2 replications per drug treatment.
# [4] = 28-day chicken growth study, feed or i.m. injection (Example XII); type: in vivo, chickens; conditions: feed 30 g/ton
# Procedure: Portions of N-morpholinyl-β-benzoyl-propionamide were admixed with chicken feed at 1 mg/kg and a 2 mg/kg, respectively. Another portion was formulated into an injectable formulation at a concentration of 2% in polyethylene glycol. The N-morpholinyl-β-benzoylpropionamide was then administered to chickens, either by i.m. injection or in feed, over 28-day period. One group of controls received no medication, while another group of controls received Bacitracin MD in its feed at 30 g/ton. Those chickens receiving intramuscular injections were injected once a week with a dosage of either 1 mg/kg or 2 mg/kg, based on body weight. Birds were weighed on days 0, 14 and 28.
structure (smiles),measurement,setting,value
"CC[C@H](C)[C@H](N)C1=N[C@H](C(=O)N[C@@H](CC(C)C)C(=O)N[C@H](CCC(=O)O)C(=O)N[C@H](C(=O)N[C@H]2CCCCNC(=O)[C@H](CC(N)=O)NC(=O)[C@@H](CC(=O)O)NC(=O)[C@H](Cc3cnc[nH]3)NC(=O)[C@@H](Cc3ccccc3)NC(=O)[C@H]([C@@H](C)CC)NC(=O)[C@@H](CCCN)NC2=O)[C@@H](C)CC)CS1 [Bacitracin MD, reference compound] (HELM PEPTIDE1{[CC[C@H](C)[C@H](N)C1=N[C@H](C(=O)[*:2])CS1].L.[dE].I.K.[NCCC[C@@H](N[*:1])C(=O)[*:2]].I.[dF].H.[dD].N}$PEPTIDE1,PEPTIDE1,5:R3-11:R2$$$V2.0)",Average Live Bird Weight,[1],2.11 kg
same,Feed Conversion,[1],1.75
same,F/G,[2]; Day 35,1.59
same,Weight Gain,[2]; Day 35,1376 g
same,F/G,[2]; Day 44,1.72
same,Weight Gain,[2]; Day 44,1909 g
same,growth results in words,[2]; house cleaned and disinfected just prior to study,lack of positive results
same,F/G,[3]; Day 7,1.37
same,Weight Gain,[3]; Day 7,337 g
same,F/G,[3]; Day 14,1.47
same,Weight Gain,[3]; Day 14,707 g
same,F/G,[3]; Day 21,1.58
same,Weight Gain,[3]; Day 21,1155 g
same,Average Weight,[4]; Day 0 (baseline),98.6 g
same,Average Weight,[4]; Day 14,475.6 g
same,Feed Conversion,[4]; Day 14,1.37
same,Weight Gain,[4]; Day 14,377.0 g
same,Average Weight,[4]; Day 28,1026.9 g
same,Feed Conversion,[4]; Day 28,1.58
same,Weight Gain,[4]; Day 28,928.3 g
